According to US20250109121A1, “POTENT AND SELECTIVE SMARCA2 DEGRADING CHIMERIC MOLECULES AS CANCER THERAPEUTICS” (BOARD OF REGENTS, THE UNIVERSITY OF TEXAS SYSTEM, priority 2021, published 2025):
Where two headings read alike, the source gives them in different places.

Tests used:
SMARCA4 = SMARCA4 (Homo sapiens, UniProt P51532); test: SMARCA4 degradation in cell lines, western blot; assay type: cell-based
[1] = test system: HCC515 lung cancer xenograft; test: In vivo anti-tumor efficacy, HCC515 lung cancer xenograft model; conditions: female NCR Nude mice, 12.5 mg/kg intraperitoneally once daily in 15% Solutol with 12.5 mg/kg ritonavir, versus vehicle
Protocol: About 1×10^7 HCC515 cells were injected into the flanks of female NCR Nude Mice. Tumor take was monitored visually and by palpation bi-weekly. Once tumors reached an average volume of 100 mm^3 mice were randomized into control and SMARCA2 degrader groups. Treatment cohorts were as follows: Vehicle was 15% Solutol in water together with 12.5 mg/kg of ritonavir as metabolic stabilizer. In the vehicle group, ten animals were injected with vehicle intraperitoneally. In the treatment group, ten animals were injected intraperitoneally once daily with 12.5 mg/kg of the SMARCA2 degrader Compound 101 in 15% Solutol in water together with 12.5 mg/kg of ritonavir as metabolic stabilizer.
Tumor diameter and volume were calculated based on caliper measurements of tumor length and […] using the formula tumor volume=(length×width^2)/2. Tumor volume and body weight were measured three times a week.

HCC2279 = test: Cell proliferation (colony assay) IC50; assay type: cell-based; conditions: HCC2279, wild-type SMARCA4
HCC827 = test: Cell proliferation (colony assay) IC50; assay type: cell-based; conditions: Homo sapiens; HCC827, wild-type SMARCA4
H2126 = test: Cell proliferation (colony assay) IC50; assay type: cell-based; conditions: Homo sapiens, NCI-H2126; H2126, mutant SMARCA4
H1975 = test: Cell proliferation (colony assay) IC50; assay type: cell-based; conditions: Homo sapiens, NCI-H1975; H1975, wild-type SMARCA4; concentration at which 50% of cellular proliferation is inhibited
Protocol: (§1) Cell lines with wild-type SMARCA4 (HCC44, H2122, H1792 and H1975) and cell lines with mutant SMARCA4 (H1693, HCC515, H322, and H1299) were seeded in appropriate dilutions to form colonies in about 1-3 weeks. Cells were treated with ACBI1 or Compound 101 at concentrations of 0.001, 0.01, 0.1, 1, and 10 μm. Colonies were fixed with glutaraldehyde (6% v/v), stained with crystal violet (0.5% w/v) and the percent area of colonies was determined (FIGS. 3A and 3B). In cell lines with wild-type SMARCA4, inhibition of colony growth was more pronounced after treatment with ACBI1 than Compound 101 (FIG. 3A).

H2122 = test: Cell proliferation (colony assay) IC50; assay type: cell-based; conditions: Homo sapiens, NCI-H2122; H2122, wild-type SMARCA4
Protocol: as §1

SMARCA2 [2] = target: T1, SMARCA2 (Homo sapiens, UniProt P51531); test: SMARCA2 degradation in cell lines, western blot; assay type: cell-based
T1 sequence (P51531 whole entry): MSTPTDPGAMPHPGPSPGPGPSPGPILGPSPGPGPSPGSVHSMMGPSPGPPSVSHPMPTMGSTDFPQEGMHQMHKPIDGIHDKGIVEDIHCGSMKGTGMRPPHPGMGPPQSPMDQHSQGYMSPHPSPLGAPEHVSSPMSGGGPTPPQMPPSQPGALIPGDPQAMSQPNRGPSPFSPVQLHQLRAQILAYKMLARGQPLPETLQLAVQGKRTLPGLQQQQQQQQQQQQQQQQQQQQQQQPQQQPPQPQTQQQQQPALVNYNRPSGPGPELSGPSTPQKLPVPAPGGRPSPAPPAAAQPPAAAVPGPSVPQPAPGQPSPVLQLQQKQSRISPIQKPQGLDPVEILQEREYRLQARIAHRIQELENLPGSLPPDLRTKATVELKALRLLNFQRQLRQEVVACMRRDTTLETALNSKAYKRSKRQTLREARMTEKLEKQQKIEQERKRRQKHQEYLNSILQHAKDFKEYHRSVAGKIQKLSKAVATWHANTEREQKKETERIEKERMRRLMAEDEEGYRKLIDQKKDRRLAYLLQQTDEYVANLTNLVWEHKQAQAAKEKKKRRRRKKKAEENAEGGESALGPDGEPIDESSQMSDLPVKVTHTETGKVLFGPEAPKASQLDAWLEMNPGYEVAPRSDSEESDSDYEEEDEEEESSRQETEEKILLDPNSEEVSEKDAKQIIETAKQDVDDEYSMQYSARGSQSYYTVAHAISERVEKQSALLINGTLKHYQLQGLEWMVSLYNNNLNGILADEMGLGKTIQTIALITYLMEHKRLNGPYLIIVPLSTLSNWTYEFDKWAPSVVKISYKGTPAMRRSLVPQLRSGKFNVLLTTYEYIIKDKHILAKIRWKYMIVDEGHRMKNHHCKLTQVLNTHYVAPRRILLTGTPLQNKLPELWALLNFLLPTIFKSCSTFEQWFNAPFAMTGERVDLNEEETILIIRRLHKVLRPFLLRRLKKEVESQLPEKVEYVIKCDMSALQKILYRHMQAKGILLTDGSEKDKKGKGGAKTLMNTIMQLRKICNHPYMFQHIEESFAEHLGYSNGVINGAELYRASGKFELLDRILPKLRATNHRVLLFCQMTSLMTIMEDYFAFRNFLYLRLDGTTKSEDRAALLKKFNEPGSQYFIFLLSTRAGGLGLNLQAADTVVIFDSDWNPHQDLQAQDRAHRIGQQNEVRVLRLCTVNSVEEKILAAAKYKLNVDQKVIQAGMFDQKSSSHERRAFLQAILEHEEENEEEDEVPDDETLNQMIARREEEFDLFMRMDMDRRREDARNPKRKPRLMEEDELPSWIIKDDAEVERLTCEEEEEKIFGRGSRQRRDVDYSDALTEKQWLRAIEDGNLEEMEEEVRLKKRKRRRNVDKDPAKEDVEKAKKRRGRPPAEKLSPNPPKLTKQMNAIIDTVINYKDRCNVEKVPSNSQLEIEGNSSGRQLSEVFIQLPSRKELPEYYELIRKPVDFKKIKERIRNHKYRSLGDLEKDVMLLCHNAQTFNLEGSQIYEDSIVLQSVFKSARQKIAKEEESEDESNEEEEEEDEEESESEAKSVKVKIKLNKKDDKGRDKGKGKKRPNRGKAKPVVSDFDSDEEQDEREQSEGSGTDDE
Protocol: Cell lines with wild-type SMARCA4 (H1975, H1792, H2122, and H441) were treated with DMSO or 0.001, 0.01, 0.1, 1, or 10 μm of ACBI1 (degrader of SMARCA2, SMARCA4 and polybromo-associated BAF complex PBRM1) or Compound 101 and expression levels of SMARCA2 (FIG. 2A) and SMARCA4 (FIG. 2B) were detected by western blot.
Cell lines with wild-type SMARCA4 (H1792) and mutant SMARCA4 (H1299) were treated for 72 h or 96 h with DMSO or 0.001, 0.01, 0.1, 1, or 10 μm Compound 103 and analyzed by western blot for SMARCA2, SMARCA4, and PBRM1 expression (FIGS. 4A, 4B, and 4C).
Cell lines with wild-type SMARCA4 (H1792) and mutant SMARCA4 (H1299) were treated for 72 h or 96 h with DMSO or 0.001, 0.01, 0.1, 1, or 10 μm Compound 102 and analyzed by western blot for SMARCA2, SMARCA4, and PBRM1 expression (FIGS. 5A, 5B, and 5C).
Cell lines with wild-type SMARCA4 (H1975) were treated with DMSO or 0.001, 0.01, 0.1, 1, or 10 μm of Compounds 104, 105, 106, 107, or 108 and analyzed by western blot for SMARCA2, SMARCA4, and PBRM1 expression (FIGS. 6A and 6B).

SMARCA2 [3] = target: T1, SMARCA2; test: SMARCA2 degradation in cell lines, western blot; assay type: cell-based; remark: listed apart in the source
[4] = H441, wild-type SMARCA4 cell line
[5] = H1975, H1792, H2122, H441, 0.001-10 μm, increasing concentrations

SMARCA4, sequence (P51532 whole entry): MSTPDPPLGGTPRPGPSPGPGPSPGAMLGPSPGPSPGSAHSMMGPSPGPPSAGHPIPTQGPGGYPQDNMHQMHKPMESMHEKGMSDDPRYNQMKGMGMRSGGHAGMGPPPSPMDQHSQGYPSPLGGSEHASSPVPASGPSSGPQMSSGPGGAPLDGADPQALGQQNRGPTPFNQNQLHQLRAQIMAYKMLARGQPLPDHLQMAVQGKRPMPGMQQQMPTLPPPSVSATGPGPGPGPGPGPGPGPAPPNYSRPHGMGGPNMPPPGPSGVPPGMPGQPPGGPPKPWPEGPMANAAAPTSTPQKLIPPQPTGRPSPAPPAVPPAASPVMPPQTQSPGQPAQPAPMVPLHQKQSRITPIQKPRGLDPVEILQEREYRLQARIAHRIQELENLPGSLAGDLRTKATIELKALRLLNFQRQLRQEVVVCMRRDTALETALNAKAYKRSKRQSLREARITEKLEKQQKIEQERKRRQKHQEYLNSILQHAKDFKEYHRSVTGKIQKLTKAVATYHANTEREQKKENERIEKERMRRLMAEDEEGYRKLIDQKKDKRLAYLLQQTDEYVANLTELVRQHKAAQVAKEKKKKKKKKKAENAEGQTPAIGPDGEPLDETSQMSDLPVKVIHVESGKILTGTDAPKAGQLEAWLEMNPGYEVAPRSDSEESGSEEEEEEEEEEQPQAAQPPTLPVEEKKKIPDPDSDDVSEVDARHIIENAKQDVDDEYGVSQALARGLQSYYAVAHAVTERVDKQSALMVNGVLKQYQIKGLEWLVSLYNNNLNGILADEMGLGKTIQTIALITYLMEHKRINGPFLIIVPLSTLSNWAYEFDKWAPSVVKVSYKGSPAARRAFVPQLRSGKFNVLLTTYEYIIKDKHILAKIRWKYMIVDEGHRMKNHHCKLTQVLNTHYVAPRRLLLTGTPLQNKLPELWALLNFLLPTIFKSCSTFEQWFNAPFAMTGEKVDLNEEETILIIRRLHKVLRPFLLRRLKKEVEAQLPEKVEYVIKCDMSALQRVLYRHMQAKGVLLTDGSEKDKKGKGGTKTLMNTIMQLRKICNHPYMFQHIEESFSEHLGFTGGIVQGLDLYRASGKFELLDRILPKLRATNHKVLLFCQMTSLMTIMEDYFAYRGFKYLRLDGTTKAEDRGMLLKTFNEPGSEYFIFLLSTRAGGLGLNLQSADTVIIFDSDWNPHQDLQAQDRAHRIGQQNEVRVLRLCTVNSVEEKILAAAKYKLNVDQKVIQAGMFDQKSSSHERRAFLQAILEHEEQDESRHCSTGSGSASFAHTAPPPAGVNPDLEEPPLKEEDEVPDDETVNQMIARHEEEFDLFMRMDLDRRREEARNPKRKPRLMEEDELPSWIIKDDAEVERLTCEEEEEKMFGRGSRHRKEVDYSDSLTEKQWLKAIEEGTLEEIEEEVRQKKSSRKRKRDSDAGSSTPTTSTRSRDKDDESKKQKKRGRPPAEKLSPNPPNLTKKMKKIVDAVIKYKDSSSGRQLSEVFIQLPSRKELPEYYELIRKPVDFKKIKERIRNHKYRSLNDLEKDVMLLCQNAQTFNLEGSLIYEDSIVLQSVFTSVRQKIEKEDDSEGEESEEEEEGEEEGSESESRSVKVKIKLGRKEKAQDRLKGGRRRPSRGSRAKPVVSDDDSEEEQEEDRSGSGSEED

SMARCA4 Dmax (%) (SMARCA4; [4]): 37%
DC50 (SMARCA4; H441, wild-type SMARCA4 cell line, read-out: SMARCA4 DC50): > 10000 nM
DC50 (SMARCA4; H1792, wild-type SMARCA4 cell line, read-out: SMARCA4 DC50): > 10000 nM
Dmax (SMARCA4; H1975, H1792, H2122, H441 (Table 3), read-out: SMARCA4 Dmax, span over cell lines): 38 to 50%
SMARCA4 degradation (western blot, in words) (SMARCA4; [5]): degraded SMARCA2 and SMARCA4
DC50 (SMARCA4; H1975, wild-type SMARCA4 cell line, read-out: SMARCA4 DC50): > 10000 nM
DC50 (SMARCA4; H2122, wild-type SMARCA4 cell line, read-out: SMARCA4 DC50): > 10000 nM
DC50 (SMARCA4; H2228, wild-type SMARCA4 cell line, read-out: SMARCA4 DC50): > 10000 nM
Dmax (SMARCA4; HCC44, HCC44, wild-type SMARCA4 cell line, read-out: SMARCA4 Dmax (%)): 39%
DC50 (SMARCA4; HCC44, wild-type SMARCA4 cell line, read-out: SMARCA4 DC50): > 10000 nM
Dmax (SMARCA4; HCC827, HCC827, wild-type SMARCA4 cell line, read-out: SMARCA4 Dmax (%)): 39%
DC50 (SMARCA4; HCC827, wild-type SMARCA4 cell line, read-out: SMARCA4 DC50): > 10000 nM
DC50 (SMARCA4; HCC2279, wild-type SMARCA4 cell line, read-out: SMARCA4 DC50): 560 nM
Dmax (SMARCA4; HCC2279, wild-type SMARCA4 cell line, read-out: SMARCA4 Dmax (%)): 79%
DC50 (SMARCA4; HOP62, wild-type SMARCA4 cell line, read-out: SMARCA4 DC50): 1410 nM
Dmax (SMARCA4; HOP-62, HOP62, wild-type SMARCA4 cell line, read-out: SMARCA4 Dmax (%)): 77%
Dmax (SMARCA4; NCI-H441, H441, wild-type SMARCA4 cell line, read-out: SMARCA4 Dmax (%)): 50%
Dmax (SMARCA4; NCI-H1792, H1792, wild-type SMARCA4 cell line, read-out: SMARCA4 Dmax (%)): 38%
Dmax (SMARCA4; NCI-H2122, H2122, wild-type SMARCA4 cell line, read-out: SMARCA4 Dmax (%)): 47%
Dmax (SMARCA4; NCI-H2228, H2228, wild-type SMARCA4 cell line, read-out: SMARCA4 Dmax (%)): 25%
Dmax (SMARCA4; wild-type SMARCA4 cells (Table 4), read-out: SMARCA4 Dmax, span over cell lines): 38 to 79%
DC50 (SMARCA4; wild-type SMARCA4 cells (Table 4), upper end printed as above 10 μM, read-out: DC50 for SMARCA4 degradation, lower end of span over cell lines): ≥ 560 nM
IC50 (HCC2279): > 10000 nM
IC50 (HCC827): > 10000 nM
IC50 (H2126): ~20 nM
IC50 (H1975): > 10000 nM
IC50 (H2122): 2600 nM
DC50 (SMARCA2 [2]; [4]): 99 nM
DC50 (SMARCA2 [2]; H1792, wild-type SMARCA4 cell line): 94 nM
SMARCA2 degradation (western blot, in words) (SMARCA2 [2]; [5]): degraded SMARCA2 and SMARCA4
DC50 (SMARCA2 [2]; H1975, wild-type SMARCA4 cell line, concentration at which 50% of the target protein is degraded): 103 nM
DC50 (SMARCA2 [2]; H2122, wild-type SMARCA4 cell line): 292 nM
selectivity in degrading SMARCA2 compared to SMARCA4, relative to ACBI1 (SMARCA2 [2]; wild-type SMARCA4 cell lines H1975, H1792, H2122, H441): greater than 100 times
Dmax (SMARCA2 [3]; A549, A549, mutant SMARCA4 cell line, read-out: SMARCA2 Dmax (%)): 96%
DC50 (SMARCA2 [3]; A549, mutant SMARCA4 cell line): 57 nM
DC50 (SMARCA2 [3]; H322, mutant SMARCA4 cell line): 27 nM
DC50 (SMARCA2 [3]; H838, mutant SMARCA4 cell line): 26 nM
DC50 (SMARCA2 [3]; H1693, mutant SMARCA4 cell line): 113 nM
DC50 (SMARCA2 [3]; H1793, mutant SMARCA4 cell line): 2 nM
DC50 (SMARCA2 [3]; H2023, mutant SMARCA4 cell line): 42 nM
DC50 (SMARCA2 [3]; H2126, mutant SMARCA4 cell line): 10 nM
DC50 (SMARCA2 [3]; H2228, wild-type SMARCA4 cell line): 106 nM
DC50 (SMARCA2 [3]; H2935, mutant SMARCA4 cell line): 8 nM
Dmax (SMARCA2 [3]; H2935, mutant SMARCA4 cell line, read-out: SMARCA2 Dmax (%)): 83%
Dmax (SMARCA2 [3]; HCC44, HCC44, wild-type SMARCA4 cell line, read-out: SMARCA2 Dmax (%)): 99%
DC50 (SMARCA2 [3]; HCC44, wild-type SMARCA4 cell line): 69 nM
Dmax (SMARCA2 [3]; HCC366, HCC366, mutant SMARCA4 cell line, read-out: SMARCA2 Dmax (%)): 99%
DC50 (SMARCA2 [3]; HCC366, mutant SMARCA4 cell line): 13 nM
Dmax (SMARCA2 [3]; HCC515, HCC515, mutant SMARCA4 cell line, read-out: SMARCA2 Dmax (%)): 81%
DC50 (SMARCA2 [3]; HCC515, mutant SMARCA4 cell line): 83 nM
Dmax (SMARCA2 [3]; HCC827, HCC827, wild-type SMARCA4 cell line, read-out: SMARCA2 Dmax (%)): 83%
DC50 (SMARCA2 [3]; HCC827, wild-type SMARCA4 cell line): 70 nM
DC50 (SMARCA2 [3]; HCC2279, wild-type SMARCA4 cell line): 32 nM
Dmax (SMARCA2 [3]; HCC2279, wild-type SMARCA4 cell line, read-out: SMARCA2 Dmax (%)): 99%
DC50 (SMARCA2 [3]; HOP62, wild-type SMARCA4 cell line): 33 nM
Dmax (SMARCA2 [3]; HOP-62, HOP62, wild-type SMARCA4 cell line, read-out: SMARCA2 Dmax (%)): 99%
Dmax (SMARCA2 [3]; NCI-H322, H322, mutant SMARCA4 cell line, read-out: SMARCA2 Dmax (%)): 99%
Dmax (SMARCA2 [3]; NCI-H441, H441, wild-type SMARCA4 cell line, read-out: SMARCA2 Dmax (%)): 67%
Dmax (SMARCA2 [3]; NCI-H838, H838, mutant SMARCA4 cell line, read-out: SMARCA2 Dmax (%)): 98%
Dmax (SMARCA2 [3]; NCI-H1693, H1693, mutant SMARCA4 cell line, read-out: SMARCA2 Dmax (%)): 84%
Dmax (SMARCA2 [3]; NCI-H1792, H1792, wild-type SMARCA4 cell line, read-out: SMARCA2 Dmax (%)): 89%
Dmax (SMARCA2 [3]; NCI-H1793, H1793, mutant SMARCA4 cell line, read-out: SMARCA2 Dmax (%)): 99%
Dmax (SMARCA2 [3]; NCI-H1975, H1975, wild-type SMARCA4 cell line, maximum degradation as percentage of DMSO control, read-out: SMARCA2 Dmax (%)): 93%
Dmax (SMARCA2 [3]; NCI-H2023, H2023, mutant SMARCA4 cell line, read-out: SMARCA2 Dmax (%)): 99%
Dmax (SMARCA2 [3]; NCI-H2122, H2122, wild-type SMARCA4 cell line, read-out: SMARCA2 Dmax (%)): 94%
Dmax (SMARCA2 [3]; NCI-H2126, H2126, mutant SMARCA4 cell line, read-out: SMARCA2 Dmax (%)): 99%
Dmax (SMARCA2 [3]; NCI-H2228, H2228, wild-type SMARCA4 cell line, read-out: SMARCA2 Dmax (%)): 82%
Dmax (SMARCA2 [3]; mutant SMARCA4 cells (Table 5), read-out: SMARCA2 Dmax, span over cell lines): 81 to 99%
Dmax (SMARCA2 [3]; wild-type SMARCA4 cells (Table 4), read-out: SMARCA2 Dmax, span over cell lines): 82 to 99%
SMILES: Nc1nnc(-c2ccccc2O)cc1N1CCN(Cc2ccc(OCCOCCNc3cccc4c3C(=O)N(C3CCC(=O)NC3=O)C4=O)c(F)c2)CC1 (stereo not shown) [Compound 101]
tumor volume (in words) [1]: substantial reduction in tumor volume
